Columns and labels:
[1] = system: S. aureus cells; assay: Binding of porphyrins to bacteria cells; type: cell-based, Staphylococcus aureus; settings: 1 μM, 5 min
Procedure: (§1) Escherichia coli strain O4 (wild type), and methycillin-resistant Staphylococcus aureus, strain MRSA 110, were grown aerobically at 37° C. in brain heart infusion broth (BHI, Difco, Detroit, Mich.). The cells in the stationary phase of growth were harvested by centrifugation (2,000 g for 15 min) of the broth cultures, washed twice with 10 mM PBS at pH=7.4, containing 2.7 mM KCl and 0.14 M NaCl, and suspended in PBS at a density of 10^8-10^9 cells/ml (absorbance of about 0.7 at 650 nm). Aliquots of 5 ml of the cell suspension were incubated with 1 μM porphyrins for 5 min in the dark at room temperature. After incubation the suspensions were centrifuged and the cell pellets were collected immediately or washed with PBS and centrifuged again for one or three times.
The amount of cell-bound porphyrins was determined in the pellets after resuspension and overnight-incubation in 2% aqueous SDS. The porphyrin concentration in the cell lysate was determined by measuring the intensity of red fluorescence (600-750 nm) emitted after excitation at 420 nm and interpolating the data on a calibration plot obtained with known porphyrin concentrations. The protein content of the cell samples was determined by the method of Lowry (Lowry et al., J. Biol. Chem., 193:265-275 (1951)) and was used to express the amount of porphyrin bound to the cells as nanomoles of porphyrin/mg of protein.

[2] = system: S. aureus cells; assay: Dark toxicity of porphyrins on bacteria cells; type: cell-based, Staphylococcus aureus; settings: 10 μM, 5 min incubation in the dark
Procedure: (§2) The toxic effects of T4MPyP and its analogues on E. coli and S. aureus cells were evaluated by measuring the extent of growth inhibition (bacteriostatic effect) and reduction of survival (cytocidal/bacteriocidal effect) following treatment with porphyrin in the dark or upon light exposure.
(§3) In all cases, 5 ml of the cell suspension (10^8-10^9 cells/ml) were incubated for 5 min in the dark at room temperature with the selected photosensitizer at concentrations ranging between 0.5 and 10 μM. After dark-incubation, some of the cell samples were irradiated with white light (150 mW/cm^2). During irradiation, (up to 30 min) the cells were kept at 37° C. and magnetically stirred. The treated and untreated control cells were diluted with BHI and maintained at 37° C. while the absorbance of the suspension at 650 nm was monitored at predetermined time periods for determining growth curves. The percent of growth inhibition in the treated cells was calculated by the following equation: […]
(§4) where AX, and AC are the absorbances measured after 3 h incubation, respectively, for the treated and control cell suspensions, respectively, while A0 represents the initial absorbance and the AC is that of the control cell suspension after 5 hours incubation. Cell survival was determined by plating serially diluted aliquots of treated and untreated cells on brain heart agar and counting the number of colonies after 18-24 h incubation at 37° C.

[3] = Fluorescence decay times (phase-shift method); type: physicochemical; settings: ca. 5 μM, air-equilibrated buffer pH 7.4, λexc = 420 nm, λem > 600 nm; for A1, relative weight of fast component: dihydrochloride salt
Procedure: Fluorescence decay times of the porphyrin samples were measured by means of a Spex Fluorolog-τ2 spectrofluorimeter based on the phase-shift method. The frequency response curves (phase-shift and demodulation ratio vs. frequency) were globally analyzed.

[4] = Triplet state properties by laser flash photolysis; type: physicochemical; settings: phosphate-buffered solution; for φT, triplet quantum yield: ε920 estimated by total depletion method
Procedure: Laser flash photolysis experiments were carried out by use of the setup previously described in Gomer, et al., with excitation wavelengths of 355 and 420 nm. Gorner, et al., Photoinduced electron transfer between styrylanthracenes and electron donors and acceptors in acetonitrile, J. Chem. Soc. Faraday Trans., vol. 88, pp. 29-34 (1992).
The transient spectra of the porphyrins in buffer solutions were recorded upon laser flash photolysis excitation at 355 and 420 nm. […] The decay (growth) of the signal (bleaching) occurred according to first-order kinetics and led to a complete recovery of the ground state with a lifetime of 91 μs. […] This also allowed the triplet quantum yield (φT) to be determined (see Table 3), after calibration of the experimental setup by use of an optically-matched solution of benzophenone in acetonitrile.

[5] = Fluorescence quantum yields; type: physicochemical; settings: for ΦF (PBS), fluorescence quantum yield: in PBS; for ΦF (SDS), fluorescence quantum yield: in aqueous 2% SDS
Procedure: Ground-state absorption spectra of the porphyrins (ca. 5 μM in phosphate buffered saline (PBS, pH=7.4) were recorded with a Lambda 5 Perkin-Elmer spectrophotometer. Fluorescence spectra, corrected for the instrumental response, were recorded with a Perkin-Elmer (model LS) or a Spex (Fluorolog F112) spectrofluorimeter. Fluorescence quantum yields ((IF) of the porphyrin derivatives in PBS and in water containing 2% sodium dodecylsulfate (a detergent, hereinafter “SDS”) were determined by measuring the area of the emission spectrum (600-800 nm range, excitation at 560 nm) and using tetra-n-propylporphycene in toluene as a reference (ΦF=0.38). Braslavsky et al, J. Photochem. Photobiol. B: Biol., 40:191-198 (1997). In all cases, the absorbance of the sample and the reference solution were kept below 0.1 at the excitation wavelength to minimize inner filter effects.

[6] = system: E. coli cells; assay: Dark toxicity of porphyrins on bacteria cells; type: cell-based, Escherichia coli; settings: 10 μM, 5 min incubation in the dark
Procedure: as §2, §3, §4

[7] = system: E. coli cells; assay: Decrease of cell survival (colony counting) after white-light irradiation; type: cell-based, Escherichia coli; settings: for DECREASE OF SURVIVAL (log): 5 min dark incubation, 15 min white light (150 mW/cm^2)
Procedure: as §1, §2, §3, §4

[8] = system: E. coli cells; assay: Growth inhibition after 5 min incubation with porphyrin and white-light irradiation; type: cell-based, Escherichia coli; settings: for concentration photoinducing significant bacteriostatic and bactericidal action: both cell strains (S. aureus and E. coli)
Procedure: (§5) The abilities of various examples of the porphyrins of the instant invention to kill Gram-negative and Gram-positive bacteria were tested against that of T4MPyP. Each of the compounds was incubated with E. coli and S. aureus cells for 5 minutes, following which the samples were irradiated with white light for varying lengths of time.
as §1, §2, §3, §4

[9] = Photosensitized photooxidation of NATA; settings: 10 μM NATA; for ΦSDS × 10^3, quantum yield for photo-oxidation of NATA: aqueous 2% SDS; for ΦPBS × 10^3, quantum yield for photo-oxidation of NATA: phosphate buffered solution
Procedure: The photosensitizing activity of the various porphyrins was tested by measuring their efficiency in promoting the photooxidation of N-acetyl-L-tryptophanamide (NATA, Aldrich Chem. Co.) as a model biological substrate. Toward this aim, 10 μM NATA in PBS or in water containing 2% SDS was irradiated in the presence of 5 μM porphyrin. The irradiations were performed with 515±10 nm-light isolated by means of an interference filter (Balzers, Liechtenstein), while the solution (2 ml) was magnetically stirred in a quartz cuvette of 1-cm optical path and kept at 25° C. The photosensitized modification of NATA was followed by measuring the decrease in the intensity of its fluorescence emission spectrum (300-450 nm) upon excitation with 290 nm-light at various irradiation times. Plots of in F°/F (where F° and F represent the fluorescence intensity at time 0 and t, respectively) vs. the irradiation time allowed the first-order rate constants of the photo-process to be derived.
The intensity of the incident light was measured by using Aberchrome 999P in toluene as an actinometer. Heller, EPA Newslett., 29:49-60 (1987). This parameter was used to calculate the quantum yields of NATA photooxidation sensitized by the different porphyrins.

[10] = system: S. aureus cells; assay: Growth inhibition after 5 min incubation with porphyrin and white-light irradiation; type: cell-based, Staphylococcus aureus
Procedure: as §5, §1, §2
[…] After dark-incubation, some of the cell samples were irradiated with white light (150 mW/cm^2). During irradiation, (up to 30 min) the cells were kept at 37° C. and magnetically stirred. The treated and untreated control cells were diluted with BHI and maintained at 37° C. while the absorbance of the suspension at 650 nm was monitored at predetermined time periods for determining growth curves. The percent of growth inhibition in the treated cells was calculated by the following equation:
as §4

[11] = 0.5 μM, incubated 5 min, white light 5 min
[12] = Table 5: 0.5 μM, 5 min incubation, 5 min white light (150 mW/cm^2)
[13] = 0.5 μM, incubated 5 min, white light 10 min

Compound | association with S. aureus compared with E. coli [1] | A2, relative weight of slow component [3] [%] | τ1, fluorescence decay time of fast component [3] [ns] | τ2, fluorescence decay time of slow component [3] [ns] | A1, relative weight of fast component [3] [%] | λmax of transient spectrum [4] [nm] | λmin of transient spectrum [4] [nm] | φ×ε920 [4] [M⁻¹ cm⁻¹] | τ^N2, triplet lifetime [4] [μs] | τ^air, triplet lifetime [4] [μs] | φT, triplet quantum yield [4] | ΦF (PBS), fluorescence quantum yield [5] | ΦF (SDS), fluorescence quantum yield [5] | DECREASE OF SURVIVAL (log) ([7]; 1 μM porphyrin) | Growth inhibition (%) E. coli [8, 11] [%] | Growth inhibition (%) E. coli [8, 12] [%] | concentration photoinducing significant bacteriostatic and bactericidal action [8] | ΦSDS × 10^3, quantum yield for photo-oxidation of NATA [9] | ΦPBS × 10^3, quantum yield for photo-oxidation of NATA [9] | Growth inhibition (%) S. aureus [10, 12] [%] | other results
5-(4-N-hexylpyridyl)-10,15,20-tris(4-N-methylpyridyl)-21H,23H-porphine tetrachloride dihydrochloride salt [Porphyrin C6] | almost two-fold larger | 94 | 0.9 | 5.1 | 6 | 480 | 425 | 6217 | 71 | 16 | 0.48 | 0.018 | 0.029 | +0.05 log | 4.8 | 5 | 10 µM | 0.68 ± 0.14 | 0.59 ± 0.05 | 47 | inhibition of bacterial cell growth in the dark [2]: barely detectable inhibition; inhibition of bacterial cell growth in the dark [6]: barely detectable inhibition; DECREASE OF SURVIVAL (log) ([7]; 10 μM porphyrin): −4.23 ± 0.54 log; Growth inhibition (%) E. coli ([8]; 0.5 μM, incubated 5 min, white light 30 min): 15.5%; Growth inhibition (%) E. coli ([8]; 10 μM, incubated 5 min, white light 5 min): 98.7%; Growth inhibition (%) E. coli ([8]; 10 μM, incubated 5 min, white light 10 min): 100%; Growth inhibition (%) E. coli ([8]; Table 5: 10 μM, 5 min incubation, 5 min white light (150 mW/cm^2)): 99%
CCCCCCCCCC[n+]1ccc(-c2c3nc(c(-c4cc[n+](C)cc4)c4ccc([nH]4)c(-c4cc[n+](C)cc4)c4nc(c(-c5cc[n+](C)cc5)c5ccc2[nH]5)C=C4)C=C3)cc1.Cl.Cl.[Cl-].[Cl-].[Cl-].[Cl-] [Porphyrin C10, 5-(4-N-decylpyridyl)-10,15,20-tris(4-N-methylpyridyl)-21H,23H-porphine tetrachloride dihydrochloride salt] | almost two-fold larger | 94 | 1.1 | 5.2 | 6 | 490 | 420 | 10214 | 67 | 20 | 0.49 | 0.015 | 0.026 | −4.32 ± 0.34 log | 46.3 | 46 | ten-fold lower concentration | 0.64 ± 0.26 | 0.59 ± 0.05 | 74 | drop in survival of E. coli cells ([7]; 1 μM porphyrin, 15 min irradiation): 4 log; Growth inhibition (%) E. coli [8, 13]: 92%; Growth inhibition (%) E. coli ([8]; 1 μM, incubated 5 min, white light 5 min): 96.1%; Growth inhibition (%) E. coli ([8]; 1 μM, incubated 5 min, white light 10 min): 100%; Growth inhibition (%) S. aureus [10, 11]: 73.9%; Growth inhibition (%) S. aureus [10, 13]: 87.9%
